Measured values: PubChem BioAssay (NCI)
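These data come from cells grown in 96-well plates and exposed to compound for 48 hours at five concentrations. TGI: total growth inhibition.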

Assays:
Assay in all cases: DTP human tumour cell line panel, 48 h
MOLT-4 leukemia = test system: MOLT-4 leukemia
NCI-H460 lung = test system: NCI-H460 lung
786-0 renal = test system: 786-0 renal
SN12C renal = test system: SN12C renal
RPMI-8226 leukemia = test system: RPMI-8226 leukemia
UACC-257 melanoma = test system: UACC-257 melanoma
OVCAR-5 ovarian = test system: OVCAR-5 ovarian
TK-10 renal = test system: TK-10 renal
LOX IMVI melanoma = test system: LOX IMVI melanoma
SK-MEL-2 melanoma = test system: SK-MEL-2 melanoma
NCI-H522 lung = test system: NCI-H522 lung
SR leukemia = test system: SR leukemia
MDA-MB-231 breast = test system: MDA-MB-231 breast
SK-MEL-5 melanoma = test system: SK-MEL-5 melanoma
K-562 leukemia = test system: K-562 leukemia
SK-MEL-28 melanoma = test system: SK-MEL-28 melanoma
T-47D breast = test system: T-47D breast
NCI-H226 lung = test system: NCI-H226 lung
UO-31 renal = test system: UO-31 renal
HCC-2998 colon = test system: HCC-2998 colon
NCI/ADR-RES ovarian = test system: NCI/ADR-RES ovarian
MDA-N = test system: MDA-N
A498 renal = test system: A498 renal
UACC-62 melanoma = test system: UACC-62 melanoma
HCT-116 colon = test system: HCT-116 colon
HCT-15 colon = test system: HCT-15 colon
DU-145 prostate = test system: DU-145 prostate
SNB-19 CNS = test system: SNB-19 CNS
HS 578T breast = test system: HS 578T breast
A549 NSCLC = test system: A549 NSCLC
RXF 393 renal = test system: RXF 393 renal
ACHN renal = test system: ACHN renal
HL-60(TB) leukemia = test system: HL-60(TB) leukemia
OVCAR-3 ovarian = test system: OVCAR-3 ovarian
PC-3 prostate = test system: PC-3 prostate
M14 melanoma = test system: M14 melanoma
NCI-H23 lung = test system: NCI-H23 lung
SW-620 colon = test system: SW-620 colon
OVCAR-8 ovarian = test system: OVCAR-8 ovarian
IGROV1 ovarian = test system: IGROV1 ovarian
CCRF-CEM leukemia = test system: CCRF-CEM leukemia
HOP-92 NSCLC = test system: HOP-92 NSCLC
BT-549 breast = test system: BT-549 breast
HT29 colon = test system: HT29 colon
MDA-MB-435 = test system: MDA-MB-435
EKVX NSCLC = test system: EKVX NSCLC
U251 CNS = test system: U251 CNS
SF-268 CNS = test system: SF-268 CNS
MALME-3M melanoma = test system: MALME-3M melanoma
HOP-62 NSCLC = test system: HOP-62 NSCLC
KM12 colon = test system: KM12 colon
SF-295 CNS = test system: SF-295 CNS
MCF7 breast = test system: MCF7 breast
SF-539 CNS = test system: SF-539 CNS
COLO 205 colon = test system: COLO 205 colon
SNB-75 CNS = test system: SNB-75 CNS
SK-OV-3 ovarian = test system: SK-OV-3 ovarian
OVCAR-4 ovarian = test system: OVCAR-4 ovarian

In the case of `Cc1cc(Cl)nc(NC(=O)CSc2ccc(Cl)cc2)n1`, the TGI (MOLT-4 leukemia) is reported as > 100 µM, the TGI (NCI-H460 lung) is reported as > 100 µM and the TGI (786-0 renal) is reported as > 100 µM. The TGI (SN12C renal) was > 100 µM, the TGI (RPMI-8226 leukemia) was > 100 µM and the TGI (UACC-257 melanoma) was > 100 µM. The TGI (OVCAR-5 ovarian) was > 100 µM, the TGI (TK-10 renal) was > 100 µM and the TGI (LOX IMVI melanoma) was > 100 µM. For the same molecule, the TGI (SK-MEL-2 melanoma) was > 100 µM, the TGI (NCI-H522 lung) was > 100 µM and the TGI (SR leukemia) was > 100 µM. For the same molecule, the TGI (MDA-MB-231 breast) was > 100 µM, the TGI (SK-MEL-5 melanoma) was > 100 µM and the TGI (K-562 leukemia) was > 100 µM. For the same molecule, the TGI (SK-MEL-28 melanoma) was > 100 µM, the TGI (T-47D breast) was > 100 µM and the TGI (NCI-H226 lung) was > 100 µM. The TGI (UO-31 renal) was > 100 µM, the TGI (HCC-2998 colon) was > 100 µM and the TGI (NCI/ADR-RES ovarian) was > 100 µM. The TGI (MDA-N) was > 100 µM, the TGI (A498 renal) was > 100 µM and the TGI (UACC-62 melanoma) was > 100 µM. The TGI (HCT-116 colon) was > 100 µM, the TGI (HCT-15 colon) was > 100 µM and the TGI (DU-145 prostate) was > 100 µM. For the same molecule, the TGI (SNB-19 CNS) was > 100 µM, the TGI (HS 578T breast) was > 100 µM and the TGI (A549 NSCLC) was > 100 µM. For the same molecule, the TGI (RXF 393 renal) was > 100 µM, the TGI (ACHN renal) was > 100 µM and the TGI (HL-60(TB) leukemia) was > 100 µM. For the same molecule, the TGI (OVCAR-3 ovarian) was > 100 µM, the TGI (PC-3 prostate) was > 100 µM and the TGI (M14 melanoma) was > 100 µM. The TGI (NCI-H23 lung) was > 100 µM, the TGI (SW-620 colon) was > 100 µM and the TGI (OVCAR-8 ovarian) was > 100 µM. For the same molecule, the TGI (IGROV1 ovarian) was > 100 µM, the TGI (CCRF-CEM leukemia) was > 100 µM and the TGI (HOP-92 NSCLC) was > 100 µM. The TGI (BT-549 breast) was > 100 µM, the TGI (HT29 colon) was > 100 µM and the TGI (MDA-MB-435) was > 100 µM. For the same molecule, the TGI (EKVX NSCLC) was > 100 µM, the TGI (U251 CNS) was > 100 µM and the TGI (SF-268 CNS) was > 100 µM. For the same molecule, the TGI (MALME-3M melanoma) was > 100 µM, the TGI (HOP-62 NSCLC) was > 100 µM and the TGI (KM12 colon) was > 100 µM. For the same molecule, the TGI (SF-295 CNS) was > 100 µM.

With `O=C1CN(c2cccc(C(F)(F)F)c2)C(=O)CN1NCNN1CC(=O)N(c2cccc(C(F)(F)F)c2)CC1=O` the TGI (MOLT-4 leukemia) was > 100 µM, the TGI (NCI-H460 lung) was > 100 µM and the TGI (786-0 renal) was > 100 µM. The TGI (SN12C renal) was > 100 µM, the TGI (RPMI-8226 leukemia) was > 100 µM and the TGI (UACC-257 melanoma) was > 100 µM. The TGI (OVCAR-5 ovarian) was > 100 µM, the TGI (TK-10 renal) was > 100 µM and the TGI (NCI-H522 lung) was > 100 µM. For the same molecule, the TGI (SR leukemia) was > 100 µM, the TGI (MCF7 breast) was > 100 µM and the TGI (MDA-MB-231 breast) was > 100 µM. For the same molecule, the TGI (SK-MEL-5 melanoma) was > 100 µM, the TGI (SF-539 CNS) was > 100 µM and the TGI (K-562 leukemia) was > 100 µM. The TGI (SK-MEL-28 melanoma) was > 100 µM, the TGI (T-47D breast) was > 100 µM and the TGI (UO-31 renal) was > 100 µM. For the same molecule, the TGI (HCC-2998 colon) was > 100 µM, the TGI (NCI/ADR-RES ovarian) was > 100 µM and the TGI (MDA-N) was > 100 µM. For the same molecule, the TGI (HCT-116 colon) was > 100 µM, the TGI (HCT-15 colon) was > 100 µM and the TGI (SNB-19 CNS) was > 100 µM. The TGI (COLO 205 colon) was > 100 µM, the TGI (HS 578T breast) was > 100 µM and the TGI (SNB-75 CNS) was > 100 µM. The TGI (A549 NSCLC) was > 100 µM, the TGI (ACHN renal) was > 100 µM and the TGI (HL-60(TB) leukemia) was > 100 µM. For the same molecule, the TGI (PC-3 prostate) was > 100 µM, the TGI (M14 melanoma) was > 100 µM and the TGI (SW-620 colon) was > 100 µM. For the same molecule, the TGI (OVCAR-8 ovarian) was > 100 µM, the TGI (IGROV1 ovarian) was > 100 µM and the TGI (CCRF-CEM leukemia) was > 100 µM. For the same molecule, the TGI (HT29 colon) was > 100 µM, the TGI (SK-OV-3 ovarian) was > 100 µM and the TGI (MDA-MB-435) was > 100 µM. The TGI (EKVX NSCLC) was > 100 µM, the TGI (U251 CNS) was > 100 µM and the TGI (SF-268 CNS) was > 100 µM. The TGI (HOP-62 NSCLC) was > 100 µM, the TGI (KM12 colon) was > 100 µM and the TGI (SF-295 CNS) was > 100 µM.

With `C=C1C(=O)O[C@@H]2[C@H]1CC[C@H](C)[C@]1(O)CCC(=O)[C@@]21C` the TGI (MOLT-4 leukemia) was > 10 µM, the TGI (786-0 renal) was > 10 µM and the TGI (SN12C renal) was > 10 µM. For the same molecule, the TGI (OVCAR-4 ovarian) was > 10 µM, the TGI (RPMI-8226 leukemia) was > 10 µM and the TGI (TK-10 renal) was > 10 µM. For the same molecule, the TGI (LOX IMVI melanoma) was > 10 µM, the TGI (SK-MEL-2 melanoma) was > 10 µM and the TGI (SR leukemia) was > 10 µM. The TGI (MCF7 breast) was > 10 µM, the TGI (SK-MEL-5 melanoma) was > 10 µM and the TGI (SF-539 CNS) was > 10 µM. For the same molecule, the TGI (K-562 leukemia) was > 10 µM, the TGI (SK-MEL-28 melanoma) was > 10 µM and the TGI (T-47D breast) was > 10 µM. For the same molecule, the TGI (NCI-H226 lung) was > 10 µM, the TGI (UO-31 renal) was 4.76 µM and the TGI (HCC-2998 colon) was > 10 µM. The TGI (NCI/ADR-RES ovarian) was > 10 µM, the TGI (MDA-N) was > 10 µM and the TGI (UACC-62 melanoma) was > 10 µM. For the same molecule, the TGI (HCT-116 colon) was > 10 µM, the TGI (HCT-15 colon) was > 10 µM and the TGI (SNB-19 CNS) was > 10 µM. For the same molecule, the TGI (COLO 205 colon) was > 10 µM, the TGI (HS 578T breast) was > 10 µM and the TGI (SNB-75 CNS) was > 10 µM. The TGI (A549 NSCLC) was > 10 µM, the TGI (RXF 393 renal) was > 10 µM and the TGI (HL-60(TB) leukemia) was > 10 µM. For the same molecule, the TGI (OVCAR-3 ovarian) was > 10 µM, the TGI (PC-3 prostate) was > 10 µM and the TGI (NCI-H23 lung) was > 10 µM. For the same molecule, the TGI (SW-620 colon) was > 10 µM, the TGI (OVCAR-8 ovarian) was > 10 µM and the TGI (IGROV1 ovarian) was > 10 µM. The TGI (CCRF-CEM leukemia) was > 10 µM, the TGI (HOP-92 NSCLC) was > 10 µM and the TGI (HT29 colon) was > 10 µM. The TGI (SK-OV-3 ovarian) was > 10 µM, the TGI (MDA-MB-435) was > 10 µM and the TGI (EKVX NSCLC) was > 10 µM. The TGI (U251 CNS) was > 10 µM, the TGI (SF-268 CNS) was > 10 µM and the TGI (MALME-3M melanoma) was > 10 µM. For the same molecule, the TGI (HOP-62 NSCLC) was > 10 µM, the TGI (KM12 colon) was > 10 µM and the TGI (SF-295 CNS) was > 10 µM.
